Data published in patent EP0176369A2, “7-(Alpha-(4-oxo-2-azetidinyl(or -azetidinylalkyl)-oxyimino)-alpha-(2-amino-4-thiazolyl)acetamido]-3- substituted-Delta 3-cephem-4-carboxylic acid compounds and salts thereof, their production, and medicaments containing them” (YAMANOUCHI PHARMACEUTICAL CO. LTD., priority 1984, dated 1986).
Converted amounts (≈) assume the structure as drawn.

Tests used:
Assay in all cases: Antibacterial activity (minimum effective inhibitory concentration)
Assay type in all cases: cell-based
[1] = test system: Ps. aeruginosa NCTC 10490; conditions: Pseudomonas aeruginosa, NCTC10490, read-out: minimum effective inhibitory concentrations
Text: (§1) Antibacterial activities (minimum effective inhibitory concentrations) of compounds of formula I (taken from the following Examples) are shown in the following Table.

Sal. enteritidis 1891 = conditions: Salmonella enterica, read-out: minimum effective inhibitory concentrations
Text: as §1

[2] = test system: Serr. marcescens II D 620; conditions: Serratia marcescens, IID620, read-out: minimum effective inhibitory concentrations
Text: as §1

[3] = test system: Kleb. pneumoniae ATCC 10031; conditions: Klebsiella pneumoniae, ATCC10031, read-out: minimum effective inhibitory concentrations
Text: as §1

[4] = test system: Staph. epidermidis IIb 866; conditions: Staphylococcus epidermidis, IIB866, read-out: minimum effective inhibitory concentrations
Text: as §1

Work on `Cn1nnnc1SCC1=C(C(=O)O)N2C(=O)C(NC(=O)C(=NOC3CC(=O)N3)c3csc(N)n3)C2SC1` (stereo not drawn) [Example 1, sodium (Z)-7-[α-(4-oxo-2-azptidinyloxyimino)-4-(2-amino-4-thiazolyl)acet-amido]-3-(1-methyl-5-tetrazolyl)thiomethyl-Δ^3-cephem-4-carboxylate] yielded an MIC [1] of 0.78 µg/mL, an MIC (Sal. enteritidis 1891) of 0.025 µg/mL and an MIC [2] of 0.05 µg/mL. For the same compound, the MIC [3] was 0.025 µg/mL and the MIC [4] was 0.2 µg/mL.

With `Nc1nc(C(=NOC2CC(=O)N2)C(=O)NC2C(=O)N3C(C(=O)O)=C(CSc4nnnn4CCO)CSC23)cs1` (centres unmarked) [Example 2, sodium (Z)-7[-(2-amino-4-thiazolyl)-∝-(4-oxo-2-azetidingloxyiino)acetamido]-3-[1-(2-gtdrixy-ethyl)-5-tetrazolyl]thiomethyl-^3-cephem-4-carboxcylate] the MIC [1] was 0.1 µg/mL, the MIC (Sal. enteritidis 1891) was 0.1 µg/mL and the MIC [2] was 0.1 µg/mL. The MIC [3] was 0.05 µg/mL and the MIC [4] was 0.78 µg/mL.

Work on `Nc1ccc[n+](CC2=C(C(=O)[O-])N3C(=O)C(NC(=O)C(=NOC4CC(=O)N4)c4csc(N)n4)C3SC2)c1` (stereo not drawn) [Example 4, (Z)-7-[α(-2-amino-4-thiazolyl) -α-(4-oxo-2-azetidinyloxyimino)acetamido]-3-(3-amino-pyridiniomethyl)-^3-cephem-4-carboxylate] yielded an MIC [1] of 0.78 µg/mL (≈ 1.43 µM), an MIC (Sal. enteritidis 1891) of 0.1 µg/mL (≈ 0.184 µM) and an MIC [2] of 0.1 µg/mL (≈ 0.184 µM). For the same compound, the MIC [3] was 0.1 µg/mL (≈ 0.184 µM) and the MIC [4] was 0.2 µg/mL (≈ 0.367 µM).

With `C[N+]1(CC2=C(C(=O)[O-])N3C(=O)C(NC(=O)C(=NOC4CC(=O)N4)c4csc(N)n4)C3SC2)CCCC1` (centres unmarked) [Example 7, (Z)-7-[ -(2-amino-4-thiazolyl)- -(4-oxo-2-azetidinyloxyimino)-acetamido]-3-(1-methyl-1-pyrrolidiniomethyl)-3-cephem-4-carboxylate] the MIC [1] was 0.39 µg/mL (≈ 0.728 µM), the MIC (Sal. enteritidis 1891) was 0.05 µg/mL (≈ 0.0934 µM) and the MIC [2] was 0.1 µg/mL (≈ 0.187 µM). For the same compound, the MIC [3] was 0.05 µg/mL (≈ 0.0934 µM) and the MIC [4] was 0.2 µg/mL (≈ 0.373 µM).
